Entries after “also recorded” stand apart in the source; their conditions may differ. No end group written: not given here.
Columns and labels:
[1] = test system: L. monocytogenes CICC 21634; assay type: cell-based, Listeria monocytogenes; conditions: for MICs of different classes of antibiotics: L. monocytogenes CICC 21634, * indicates resistant (CLSI, 2020); for MICs: CICC 21634, 18 h
Experimental: (§1) The MICs of Myr-36PW in vitro were measured through microdilution in accordance with the Clinical and Laboratory Standards Institute (CLSI, [2020]). The bacterial cells were cultured for 12 h at 37°C in the appropriate medium and then diluted to 1 × 10^6 CFU/mL. Equal volumes (100 μL) of bacterial cell suspension and two-fold serially diluted different concentrations peptides (0.0039–256 μg/mL) were added to each well of the sterile 96-well plate. The samples were incubated for 18 h at 37°C. After incubation, the MICs of the peptides were determined by evaluating the growth based on the OD600 of the cultures.

P. aeruginosa GIM 1.551 [2] = assay type: cell-based, Pseudomonas aeruginosa; conditions: for MICs of different classes of antibiotics: P. aeruginosa GIM 1.551, * indicates resistant (CLSI, 2020); for MICs: GIM 1.551, 18 h
Experimental: as §1

S. aureus ATCC 25923 [3] = assay type: cell-based, Staphylococcus aureus; conditions: for MICs of different classes of antibiotics: S. aureus ATCC 25923, * indicates resistant (CLSI, 2020); for MICs: ATCC 25923, 18 h
Experimental: as §1

S. typhimurium SL 1344 = assay type: cell-based, Salmonella typhimurium; conditions: for MICs of different classes of antibiotics: S. typhimurium SL 1344, * indicates resistant (CLSI, 2020); for MICs: SL 1344, 18 h
Experimental: as §1

P. aeruginosa GIM 1.551 [4] = experiment: Wound infection model; assay type: in vivo, BALB/c mice; conditions: 20 μL, 1 μg/μL, once a day for 7 days
Experimental: Sixty mice with ten mice in each group were used in the experiment. Infection and treatment were performed as previously described (Hong et al., [2017]). The mouse dorsal region with a diameter of 3.0 cm was treated with hair pusher, and a full-thickness 2.0 cm diameter wound was created by excising the skin and infected by direct seeding with P. aeruginosa GIM 1.551 (1 × 10^8 CFU/mL, 50 μL). The wound was then covered with sterile gauze to prevent cross contamination. Treatment was initiated at 24 h after bacterial inoculation. The mice with no infection and treatment was used as a blank control, those provided with PBS (20 μL) as the negative control group, those administered with ampicillin sodium (20 μL, 1 μg/μL) as the positive control group, and the remaining were those treated with the three peptides (20 μL, 1 μg/μL) once a day for 7 days as the treatment groups. The mice were sacrificed after the 7 day treatment. Changes in the wound were observed, and the infected sections of skin were aseptically contained, homogenized, and serially diluted. Bacterial CFU counts were obtained.
Figure 11 Treatment value of wound by Myr-36PW in vivo. A 2 cm wound was cut with a knife and directly injected with P. aeruginosa GIM 1.551. (A) Wound changes of mice after 7 days treatment. (B) Bacterial CFU in the wound area treated for 7 days under different experimental conditions. AS is ampicillin sodium. Data represent the mean Log (CFU) ± SD of five individual experiments. *P < 0.05 and **P < 0.01, compared with PBS. ^#P < 0.05, compared with PMAP-36PW.

P. aeruginosa GIM 1.551 [5] = experiment: Subcutaneous abscess model; assay type: in vivo, BALB/c mice; conditions: injected 20 μL, 1 μg/μL, once a day for 3 days
Experimental: A subcutaneous abscess model in vivo was established as previously reported (Zhao et al., [2019]). The mouse dorsal region with 3.0 cm diameter was treated with hair pusher. A total of 120 mice were randomly divided into two experimental models, one was challenged with S. aureus ATCC 25923 (2.5 × 10^8 CFU/mL, 60 μL), and the other was challenged with P. aeruginosa GIM 1.551 (3.0 × 10^8 CFU/mL, 60 μL). In the S. aureus ATCC 25923 model, 60 mice were divided into six groups of 10 members. The mice with no infection and treatment was used as a blank control, those directly injected with PBS (20 μL) as the negative control group, those injected with benzylpenicillin potassium (20 μL, 1 μg/μL) as the positive control group, and the remaining three groups as the treatment groups injected with Myr-36PW (20 μL, 1 μg/μL), PMAP-36PW (20 μL, 1 μg/μL), and PMAP-36 (20 μL, 1 μg/μL). The procedure in P. aeruginosa GIM 1.551 model is the same as that in S. aureus ATCC 25923 model, except for the use of ampicillin sodium as a positive control. Treatment once a day for 3 days was initiated when the mice developed prominent pustules on their backs. A day after the treatment, the size of the abscess was observed, and its tissues were excised, homogenized, and serially diluted. Bacteria CFU counts were calculated.
Figure 10 Treatment efficacy of subcutaneous abscess by Myr-36PW in vivo. Mice were injected with S. aureus ATCC 25923 or P. aeruginosa GIM 1.551 to develop a subcutaneous abscess before treatment. (A) Changes in the abscess area of mice after 3 days treatment. (B,C) Quantitative analysis of bacterial CFU in abscess area that received 3 days treatment under various experimental conditions. The number of CFU in each treatment group was normalized by using the CFU of the experimental group divided by the CFU of the PBS group (100%). BP is benzylpenicillin potassium, AS is ampicillin sodium. Data represent the mean ± SD of five individual experiments. *P < 0.05 and **P < 0.01, compared with PBS. ^#P < 0.05 and ^##P < 0.01, compared with PMAP-36PW.

P. aeruginosa GIM 1.551 [6] = experiment: Pneumonia (lung infection) model; assay type: in vivo, BALB/c mice; conditions: intranasal 40 μL, 1 μg/μL, once a day for 3 days
Experimental: A pneumonia model in vivo was established as previously reported, with minor modification (Cortés et al., [2002]; Aoki et al., [2009]; Shi et al., [2018]). A total of 120 mice were randomly divided into two experimental models, one was intranasal inoculation of S. aureus ATCC 25923 (8.3 × 10^9 CFU/mL, 50 μL), and the other was intranasal inoculation of P. aeruginosa GIM 1.551 (4.5 × 10^10 CFU/mL, 50 μL). In the S. aureus ATCC 25923 model, 60 mice were divided into the following six groups of 10 mice each: no infection and treatment was used as a blank control, those with intranasal administration of PBS (40 μL) as the negative control group, those administered with benzylpenicillin potassium (40 μL, 1 μg/μL) as the positive control group, and the remaining three corresponded to Myr-36PW (40 μL, 1 μg/μL), PMAP-36PW (40 μL, 1 μg/μL), and PMAP-36 groups (40 μL, 1 μg/μL). The procedure for P. aeruginosa GIM 1.551 model is the same as for S. aureus ATCC 25923 model, except for the use of ampicillin sodium as the positive control. After 4 h post-inoculation, treatment was initiated, once a day for 3 days. The mice were sacrificed 24 h after the treatment. Changes in the appearance of lung tissues were observed, and lung tissues were removed aseptically from the mice. Half of the removed lung tissues were gently fixed in buffered formaldehyde solution for histopathological assessment by hematoxylin and eosin (H&E) staining. Pathological changes were scored to provide individual therapeutic status as described previously (Lei et al., [2018]). The remaining lung tissues were added with 1 mL of PBS, homogenized, and serially diluted. Bacterial CFU counts were determined.
Figure 8 Therapeutic effect for pneumonia by Myr-36PW in vivo. Mice were injected with S. aureus ATCC 25923 or P. aeruginosa GIM 1.551 to form pneumonia, and lungs (n = 5) in each group were collected on day 4 after intranasal bacterial inoculation. (A) Morphological changes of lung tissues. (B) Representative histopathological images of processed lung section with hematoxylin and eosin (H&E) staining. Images are presented at a magnification of 20×. a: inflammatory cell infiltration. b: the alveolar wall is thickened. c: alveolar wall congestion or alveolar hemorrhage. (C,D) Pathological scores of the lung sections. Scoring standard: 1 indicated no pathology, 2 indicated local pulmonary congestion and inflammatory cell infiltration, 3 indicated pulmonary congestion and a large number of inflammatory cell infiltration, affecting <20% of the section, 4 indicated pulmonary congestion and a large number of inflammatory cell infiltration, affecting 20–50% of the section, and 5 indicated pulmonary congestion and a large number of inflammatory cell infiltration, affecting >50% of the section. (E,F) Bacterial CFU in lung homogenate. BP is benzylpenicillin potassium, AS is ampicillin sodium. Data represent the mean ± SD of five individual experiments.

S. aureus ATCC 25923 [7] = assay type: cell-based, Staphylococcus aureus; conditions: ATCC 25923, 1 h
Experimental: (§2) The effects of abiotic factors on the antibacterial activity of Myr-36PW were investigated by MIC assay (Xi et al., [2013]; Zhong et al., [2019]). S. aureus ATCC 25923 and P. aeruginosa GIM 1.551 overnight cultures were diluted to 1 × 10^6 CFU/mL, and the MICs of peptides in MHB with different concentration of physiological salts (150 mM NaCL, 2 mM CaCL2) were determined. And after the peptides incubated in 10% mice serum for 1 h at 37°C, MICs of peptides against S. aureus ATCC 25923 and P. aeruginosa GIM 1.551 were determined. The MICs in MHB in the absence of physiological salts and serum were used as the control group.
(§3) Salt and serum stability in vitro were indicated by MIC assay. The concentrations of NaCl and CaCl2 were physiological concentration. 10% mice serum was inactivated by heat treatment for 15 min at 60 ℃。The control group was measured in the absence of physiological salts or serum in MHB.

P. aeruginosa GIM 1.551 [8] = assay type: cell-based, Pseudomonas aeruginosa; conditions: GIM 1.551, 1 h
Experimental: as §2, §3

## NCC[C@H](O)C(=O)N[C@@H]1C[C@H](N)[C@@H](O[C@H]2O[C@H](CN)[C@@H](O)[C@H](O)[C@H]2O)[C@H](O)[C@H]1O[C@H]1O[C@H](CO)[C@@H](O)[C@H](N)[C@H]1O [Amikacin]
[1]
  MICs of different classes of antibiotics: 128* μg/mL
P. aeruginosa GIM 1.551 [2]
  MICs of different classes of antibiotics: >128* μg/mL
S. aureus ATCC 25923 [3]
  MICs of different classes of antibiotics: 4 µg/mL
S. typhimurium SL 1344
  MICs of different classes of antibiotics: 32 µg/mL

## CC1(C)S[C@@H]2[C@H](NC(=O)[C@H](N)c3ccccc3)C(=O)N2[C@H]1C(=O)O [Ampicillin sodium]
[1]
  MICs of different classes of antibiotics: 64 µg/mL
P. aeruginosa GIM 1.551 [4]
  Wound size: significantly reduced
P. aeruginosa GIM 1.551 [4]; vs PBS group: PMAP-36PW P < 0.05, Myr-36PW and ampicillin sodium P < 0.01, n = 5
  Bacterial CFU in the wound area: significantly reduced
P. aeruginosa GIM 1.551 [5]
  Abscess area: significantly reduced the abscess area and effectively suppressed its growth
P. aeruginosa GIM 1.551 [5]; vs PMAP-36PW: Myr-36PW P < 0.05, ampicillin sodium P < 0.01, n = 5
  Bacterial CFU in abscess area: significant difference compared with that of PBS group (P < 0.01); also recorded: lower than that of PMAP-36PW group
P. aeruginosa GIM 1.551 [2]
  MICs of different classes of antibiotics: 32 µg/mL
S. aureus ATCC 25923 [3]
  MICs of different classes of antibiotics: 0.5 µg/mL
S. typhimurium SL 1344
  MICs of different classes of antibiotics: 16 µg/mL
P. aeruginosa GIM 1.551 [6]
  Lung histopathology (H&E): a complete alveolar structure, reduced blood stasis, and large reduction in inflammatory cells
P. aeruginosa GIM 1.551 [6]; n = 5
  Bacterial CFU in lung homogenate: decreased the P. aeruginosa GIM 1.551 CFU level compared with the PMAP-36PW group (P < 0.05)
  Pathological scores of the lung sections: lower scores than PMAP-36PW group (P < 0.05)

## CC[C@H]1OC(=O)[C@H](C)[C@@H](O[C@H]2C[C@@](C)(OC)[C@@H](O)[C@H](C)O2)[C@H](C)[C@@H](O[C@@H]2O[C@H](C)C[C@H](N(C)C)[C@H]2O)[C@](C)(O)C[C@@H](C)CN(C)[C@H](C)[C@@H](O)[C@]1(C)O [Azithromycin]
[1]
  MICs of different classes of antibiotics: 64* μg/mL
P. aeruginosa GIM 1.551 [2]
  MICs of different classes of antibiotics: 128* μg/mL
S. aureus ATCC 25923 [3]
  MICs of different classes of antibiotics: 64* μg/mL
S. typhimurium SL 1344
  MICs of different classes of antibiotics: >128* μg/mL

## CNC(C)C1CCC(N)C(OC2C(N)CC(N)C(OC3OCC(C)(O)C(NC)C3O)C2O)O1 (centres unmarked) [Gentamicin]
[1]
  MICs of different classes of antibiotics: 32* μg/mL
P. aeruginosa GIM 1.551 [2]
  MICs of different classes of antibiotics: 128* μg/mL
S. aureus ATCC 25923 [3]
  MICs of different classes of antibiotics: 4 µg/mL
S. typhimurium SL 1344
  MICs of different classes of antibiotics: 8 µg/mL

## Colistin
[1]
  MICs of different classes of antibiotics: 8 µg/mL
P. aeruginosa GIM 1.551 [2]
  MICs of different classes of antibiotics: 4* μg/mL
S. aureus ATCC 25923 [3]
  MICs of different classes of antibiotics: 16* μg/mL
S. typhimurium SL 1344
  MICs of different classes of antibiotics: 2 µg/mL

## GRFRRLRKKTRKRLKKIGKVLKWIPPIVGSIPLGCG [PMAP-36]
[1]
  MICs: 4 µg/mL
S. aureus ATCC 25923 [7]
  MICs, CaCl2: 0.0625 µg/mL
  MICs, NaCl: 0.0625 µg/mL
  MICs, Serum: 0.0625 µg/mL
P. aeruginosa GIM 1.551 [8]
  MICs, CaCl2: 2 µg/mL
  MICs, Control: 2 µg/mL
  MICs, NaCl: 2 µg/mL
  MICs, Serum: 2 µg/mL
P. aeruginosa GIM 1.551 [2]
  MICs: 1 µg/mL
S. aureus ATCC 25923 [3]
  MICs: 0.0156 µg/mL
S. typhimurium SL 1344
  MICs: 32 µg/mL

## GRFRRLRKKTRKRLKKIGKVLKWIWWIVGSIPLGCG [PMAP-36PW]
[1]
  MICs: 2 µg/mL
P. aeruginosa GIM 1.551 [8]
  MICs, CaCl2: 1 µg/mL
  MICs, Control: 1 µg/mL
  MICs, NaCl: 1 µg/mL
  MICs, Serum: 1 µg/mL
P. aeruginosa GIM 1.551 [2]
  MICs: 0.5 µg/mL
S. aureus ATCC 25923 [3]
  MICs: 0.0078 µg/mL
S. typhimurium SL 1344
  MICs: 16 µg/mL

## Polymyxin B
[1]
  MICs of different classes of antibiotics: 8 µg/mL
P. aeruginosa GIM 1.551 [2]
  MICs of different classes of antibiotics: 4* μg/mL
S. aureus ATCC 25923 [3]
  MICs of different classes of antibiotics: 16* μg/mL
S. typhimurium SL 1344
  MICs of different classes of antibiotics: 2 µg/mL
